From patent publication US12128040B2, “Selective estrogen receptor degraders” (Eli Lilly and Company, priority 2018, dated 2024) come the findings set out here.

Series [1] deals with MCF7-ESR1 Y537N mutant cells. As to the kind of experiment: Cell proliferation assay in MCF7-ESR1 Y537N-682. The series is classed as cell-based. The note with it: Homo sapiens, seven days, n=6, read-out: Relative IC50 (nM), cell proliferation.
For a further series, the system named is MCF7 ESR1 wild type. The experiment in a line: Cell proliferation assay in MCF7. The class given is cell-based. The settings on record: Homo sapiens, seven days, n=2, read-out: Relative IC50 (nM), cell proliferation. The source says:
The purpose of the following cell proliferation assays generally is to detect whether a test compound has effects on cell proliferation, cell viability, and cytotoxicity in response to treatment in cell culture experiments. Cell proliferation is monitored by monitoring the number of cells over time and the […] assay used allows continuous measurement of cell viability over time.
Seed MCF7 (purchased from ATCC HTB-22) cells at a density of 2,000 cells per well in DMEM phenol red free media 10% FBS (20 μL volume) (charcoal stripped) into a clear bottom 384-well cell culture plate. […] Scan the plates with ACUMEN EXPLORER™ [Laser-scanning fluorescence microplate cytometer manufactured by TTP LABTECH LTD]. The MCF-7 cell line grows forming aggregates, cell number as number of objects may not be able to be used as readout; so the cell number may be evaluated through estimated number of cells (calculated through the area parameter (ratio of total area of the total cells population (a designated range of peak intensity of FL-1 (PI) and the mean area of the single cells population (defined by perimeter)). Determine the IC50 by curve fitting to a four parameter logistic for each output using GENE DATA™.

The nature of series [2]: Rat oral bioavailability assay. The class given is in vivo. The note with it: plasma, Sprague-Dawley rats, IV 1 mg/kg, PO 10 mg/kg, read-out: oral bioavailability (% F). As for the experimental part: Administer the test compound to Sprague-Dawley rats IV at 1 mg/kg (using vehicles of either: 20% CAPTISOL© in 25 mM sodium phosphate buffer, pH2 quantum satis; or 25% DMA, 15% EtOH, 10% propylene glycol, 25% 2-pyrrolidone, and 25% purified water) and PO at 10 mg/kg (using a vehicle of 1% hydroxyethyl cellulose, 0.25% polysorbate 80, 0.05% Antifoam 1510-US, and purified water quantum satis). Collect serial blood samples at 0.08, 0.25, 0.5, 1, 2, 4, 8, and 12 hours post dose for IV bolus and at 0.25, 0.5, 1, 2, 4, 8, and 12 hours post dose after oral administration. After treatment with an EDTA […], obtain plasma by centrifugation and stored at −70° C. until analysis by LC-MS/MS. Determine the test compound concentration in plasma and upload into the Watson LIMS™ system where noncompartmental analysis is used to calculate Area Under the Curve (AUC) for both IV and PO arms. Calculate oral bioavailability (% F) via the following equation, % F=(AUCPO×DoseIV)/(AUCIV×DosePO)×100.

In series [3] the test system is PGR (Progesterone Receptor alpha) gene expression. As to the kind of experiment: In vivo target inhibition (IVTI) assay (PGR RT-qPCR) in MCF7 tumors. More on the design: species or system mice. The settings on record: MCF7 tumor xenograft, 30 mg/kg orally, 24 hours. How it is done: The purpose of this IVTI assay is to measure the ability of a test compound (SERD) to inhibit PGR (Progesterone Receptor alpha) gene expression (transcription) downstream of ERα in xenograft tumors implanted in mice.
Implant female NOD SCID mice (22-25 g) from Envigo RMS, Inc., Madison, Wisconsin with 5×10e^6 MCF7 ER+ve breast cancer cells (ATCC, #HTB-22) subcutaneously in the right flank region in 1:1 HBSS+[…]™ solution (200 μL). Implant a […] pellet (0.18 mg/pellet, 90 day release, from Innovative research) subcutaneously 1 day prior to tumor cell implantation. […] Sacrifice animals using isoflurane anesthesia plus cervical dislocation. Flash freeze tumors and store at −80° C. until processing for RNA isolation and RT-qPCR assay. Collect blood in EDTA tubes, spin down for plasma, and freeze at −80° C. in a 96-well plate. Determine test compound exposures using mass spectrometry.
Pulverize tumors in liquid nitrogen and lyse in 1×RNA lysis buffer (from RNA isolation kits) using Matrix D beads (MP Biomedical, #6913-500) in a FASTPREP-24™ Cell Disrupter machine (MP Biomedical). […] Measure isolated RNA concentration by diluting samples in RNase free water and measuring the absorbance at 260 nm on a plate reader (SpectraMax190). Subtract the average 260 nm absorbance measurement of the blank (RNase free water only) from the 260 nm measurements of all other RNA samples. […]

By bioavailability is commonly meant the share of a dose that reaches the circulation, judged against a reference dose that is usually intravenous.

Regarding `O=C(c1ccc(OCCN2CC(CF)C2)cc1)c1c(-c2ccc(C(F)(F)F)cc2F)cnc2cc(O)ccc12` [Example 1, (4-{2-[3-(Fluoromethyl)azetidin-1-yl]ethoxy}phenyl){3-[2-fluoro-4-(trifluoromethyl)phenyl]-7-hydroxyquinolin-4-yl}methanone], the values for the IC50 (in series [1]; with MCF7 ESR1 wild type) were 7.96 ± 3.69 nM and 9.24 ± 1.74 nM, respectively. For the same compound, in series [2], the bioavailability is 27%. Further, the “inhibition of PRα (PGR) expression” value in series [3] worked out at 57%.
